Assay results taken from article PMC5391474, “Investigation of the Role of Protein Kinase D in Human Rhinovirus Replication” (Journal of Virology, 2017).

Key:
Assay in all cases: biochemical
Parameters in all cases: in vitro kinase selectivity panel, protein and lipid kinases, single concentration, ATP at Km
Conditions in all cases: ATP at Km
MST2(h) = target: T1, MST2(h) (Homo sapiens, UniProt Q13188)
T1 construct: gene STK3
Method in brief: (§1)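 Single-point screen against a protein and lipid kinase panel: inhibitor at 1 μM. ATP concentration for every kinase equivalent to its Km.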

CK1γ3(h) = target: T2, CK1γ3(h) (Homo sapiens, UniProt Q9Y6M4)
T2 construct: gene CSNK1G3
T2 sequence (Q9Y6M4 whole entry): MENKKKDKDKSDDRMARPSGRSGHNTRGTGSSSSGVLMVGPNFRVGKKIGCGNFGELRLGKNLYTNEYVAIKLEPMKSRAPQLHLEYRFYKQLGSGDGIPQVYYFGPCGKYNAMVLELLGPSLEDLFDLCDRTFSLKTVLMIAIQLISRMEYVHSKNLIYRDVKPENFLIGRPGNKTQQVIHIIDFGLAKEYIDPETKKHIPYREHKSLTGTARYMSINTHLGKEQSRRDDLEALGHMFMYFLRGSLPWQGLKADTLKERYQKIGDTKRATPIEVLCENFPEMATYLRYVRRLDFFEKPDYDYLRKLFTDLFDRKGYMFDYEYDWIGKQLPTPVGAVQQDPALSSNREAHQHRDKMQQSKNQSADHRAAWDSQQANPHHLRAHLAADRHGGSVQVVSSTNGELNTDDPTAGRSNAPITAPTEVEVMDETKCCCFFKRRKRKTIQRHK
Method in brief: as §1

PKD (PKD1) = target: T3, PKD (PKD1) (Homo sapiens, UniProt Q15139)
T3 construct: gene PRKD1
Method in brief: as §1

Tie2 (h) = target: T4, Tie2 (h) (Homo sapiens, UniProt Q02763)
T4 construct: gene TEK
T4 sequence (Q02763 whole entry): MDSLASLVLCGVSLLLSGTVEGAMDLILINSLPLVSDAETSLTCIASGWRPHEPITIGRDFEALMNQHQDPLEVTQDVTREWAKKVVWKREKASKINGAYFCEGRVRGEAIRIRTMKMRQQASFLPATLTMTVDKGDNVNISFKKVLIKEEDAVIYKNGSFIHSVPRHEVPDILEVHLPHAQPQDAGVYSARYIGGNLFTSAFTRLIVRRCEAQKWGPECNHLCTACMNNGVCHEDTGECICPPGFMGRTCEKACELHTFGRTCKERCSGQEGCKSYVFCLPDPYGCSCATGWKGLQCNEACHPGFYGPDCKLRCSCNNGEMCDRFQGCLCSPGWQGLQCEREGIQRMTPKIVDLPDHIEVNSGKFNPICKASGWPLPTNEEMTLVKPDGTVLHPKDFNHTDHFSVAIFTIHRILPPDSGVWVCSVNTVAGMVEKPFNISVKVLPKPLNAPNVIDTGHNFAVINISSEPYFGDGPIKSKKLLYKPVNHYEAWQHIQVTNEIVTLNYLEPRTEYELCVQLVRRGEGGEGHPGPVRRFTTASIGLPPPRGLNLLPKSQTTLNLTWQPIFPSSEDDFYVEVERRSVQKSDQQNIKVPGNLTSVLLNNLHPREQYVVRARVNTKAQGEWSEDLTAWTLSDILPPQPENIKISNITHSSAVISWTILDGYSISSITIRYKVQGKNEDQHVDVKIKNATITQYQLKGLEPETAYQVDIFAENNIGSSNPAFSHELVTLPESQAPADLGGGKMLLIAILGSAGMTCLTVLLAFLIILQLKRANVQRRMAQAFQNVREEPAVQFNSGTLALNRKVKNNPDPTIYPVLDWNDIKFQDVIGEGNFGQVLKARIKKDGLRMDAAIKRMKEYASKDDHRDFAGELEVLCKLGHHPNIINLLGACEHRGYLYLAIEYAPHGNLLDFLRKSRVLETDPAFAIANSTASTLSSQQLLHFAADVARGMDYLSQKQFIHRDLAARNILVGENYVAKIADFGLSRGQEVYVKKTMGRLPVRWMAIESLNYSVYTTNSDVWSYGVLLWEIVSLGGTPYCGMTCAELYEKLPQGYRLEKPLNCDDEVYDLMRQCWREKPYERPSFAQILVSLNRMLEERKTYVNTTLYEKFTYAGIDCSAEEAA
Method in brief: as §1

AMPKα1(h) = target: T5, AMPKα1(h) (Homo sapiens, UniProt Q13131)
T5 construct: gene PRKAA1
Method in brief: as §1

CHKA = CHKA (Homo sapiens, UniProt P35790)
Method in brief: as §1

FGFR2(h) = FGFR2(h) (Homo sapiens, UniProt P21802)
Method in brief: as §1

JAK2(h) = JAK2(h) (Homo sapiens, UniProt O60674)
Sequence of JAK2(h) (O60674 whole entry): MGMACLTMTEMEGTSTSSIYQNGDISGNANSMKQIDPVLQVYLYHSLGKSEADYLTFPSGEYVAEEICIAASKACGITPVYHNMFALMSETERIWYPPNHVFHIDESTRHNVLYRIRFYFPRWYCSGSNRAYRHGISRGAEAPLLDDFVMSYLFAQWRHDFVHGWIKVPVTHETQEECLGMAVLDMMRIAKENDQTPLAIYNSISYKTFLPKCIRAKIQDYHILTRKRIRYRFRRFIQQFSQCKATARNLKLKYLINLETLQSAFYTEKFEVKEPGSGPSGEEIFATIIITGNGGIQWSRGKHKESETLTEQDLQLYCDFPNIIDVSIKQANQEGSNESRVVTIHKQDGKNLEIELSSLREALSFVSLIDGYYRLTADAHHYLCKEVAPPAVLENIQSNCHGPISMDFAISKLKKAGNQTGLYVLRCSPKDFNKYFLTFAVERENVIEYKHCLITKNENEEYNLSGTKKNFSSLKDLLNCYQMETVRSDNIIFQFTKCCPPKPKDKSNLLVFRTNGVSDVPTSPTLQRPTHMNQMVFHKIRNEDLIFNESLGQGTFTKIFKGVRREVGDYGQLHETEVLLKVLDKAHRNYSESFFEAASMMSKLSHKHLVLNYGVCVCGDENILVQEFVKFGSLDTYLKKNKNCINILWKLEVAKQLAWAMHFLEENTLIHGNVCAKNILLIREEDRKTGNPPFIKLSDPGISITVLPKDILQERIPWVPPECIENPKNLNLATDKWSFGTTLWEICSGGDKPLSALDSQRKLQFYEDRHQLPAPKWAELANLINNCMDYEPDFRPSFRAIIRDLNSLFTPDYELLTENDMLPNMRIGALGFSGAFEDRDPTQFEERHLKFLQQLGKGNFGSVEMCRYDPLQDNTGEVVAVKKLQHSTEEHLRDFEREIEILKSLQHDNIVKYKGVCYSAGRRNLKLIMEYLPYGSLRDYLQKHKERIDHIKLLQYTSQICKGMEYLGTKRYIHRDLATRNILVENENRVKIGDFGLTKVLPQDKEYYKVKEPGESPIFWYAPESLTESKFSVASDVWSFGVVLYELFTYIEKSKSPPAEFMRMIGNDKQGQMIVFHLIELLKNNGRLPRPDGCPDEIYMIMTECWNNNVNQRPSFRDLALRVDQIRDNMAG
Method in brief: as §1

CK2(h) = target: T6, CK2(h) (Homo sapiens, UniProt P68400)
T6 construct: gene CSNK2A1
T6 sequence (P68400 whole entry): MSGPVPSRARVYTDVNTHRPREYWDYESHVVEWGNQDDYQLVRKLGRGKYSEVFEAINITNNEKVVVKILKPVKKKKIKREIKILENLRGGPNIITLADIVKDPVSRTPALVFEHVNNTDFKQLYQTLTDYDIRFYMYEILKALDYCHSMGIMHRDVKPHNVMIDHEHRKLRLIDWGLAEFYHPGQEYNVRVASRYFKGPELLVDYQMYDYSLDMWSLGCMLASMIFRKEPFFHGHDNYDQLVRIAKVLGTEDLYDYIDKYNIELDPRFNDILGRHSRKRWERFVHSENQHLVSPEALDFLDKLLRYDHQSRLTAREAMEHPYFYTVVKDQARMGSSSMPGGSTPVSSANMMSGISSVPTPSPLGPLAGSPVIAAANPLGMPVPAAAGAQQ
T6 sequence (P67870 whole entry partner): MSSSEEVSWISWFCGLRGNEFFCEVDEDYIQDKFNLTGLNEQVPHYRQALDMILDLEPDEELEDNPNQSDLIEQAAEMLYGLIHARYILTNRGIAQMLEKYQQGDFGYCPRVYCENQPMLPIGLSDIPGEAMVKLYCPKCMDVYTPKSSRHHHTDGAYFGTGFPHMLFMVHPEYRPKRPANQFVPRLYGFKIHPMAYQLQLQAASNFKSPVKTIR
Method in brief: as §1

CK1γ1(h) = target: T7, CK1γ1(h) (Homo sapiens, UniProt Q9HCP0)
T7 construct: gene CSNK1G1
Method in brief: as §1

CHK1(h) = target: T8, CHK1(h) (Homo sapiens, UniProt O14757)
T8 construct: gene CHEK1
T8 sequence (O14757 whole entry): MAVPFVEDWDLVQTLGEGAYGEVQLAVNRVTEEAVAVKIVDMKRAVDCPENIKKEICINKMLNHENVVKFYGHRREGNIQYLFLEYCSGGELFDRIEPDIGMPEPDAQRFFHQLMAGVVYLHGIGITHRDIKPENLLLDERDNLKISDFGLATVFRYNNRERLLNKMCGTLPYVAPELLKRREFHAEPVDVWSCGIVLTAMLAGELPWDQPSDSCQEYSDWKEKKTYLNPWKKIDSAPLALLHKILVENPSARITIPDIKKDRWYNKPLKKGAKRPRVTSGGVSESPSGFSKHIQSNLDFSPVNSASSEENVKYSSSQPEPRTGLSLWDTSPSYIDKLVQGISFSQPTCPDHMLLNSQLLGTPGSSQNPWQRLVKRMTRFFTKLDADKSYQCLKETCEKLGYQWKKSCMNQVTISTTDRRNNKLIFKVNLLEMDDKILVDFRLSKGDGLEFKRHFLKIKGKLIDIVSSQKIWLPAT
Method in brief: as §1

Snk(h) = target: T9, Snk(h) (Homo sapiens, UniProt Q9NYY3)
T9 construct: gene PLK2
Method in brief: as §1

ROCK-II(h) = target: T10, ROCK-II(h) (Homo sapiens, UniProt O75116)
T10 construct: gene ROCK2
Method in brief: as §1

EGFR(L861Q)(h) = EGFR(L861Q)(h) (Homo sapiens, UniProt P00533, L861Q)
Method in brief: as §1

LIMK1(h) = LIMK1(h) (Homo sapiens, UniProt P53667)
Sequence of LIMK1(h) (P53667 whole entry): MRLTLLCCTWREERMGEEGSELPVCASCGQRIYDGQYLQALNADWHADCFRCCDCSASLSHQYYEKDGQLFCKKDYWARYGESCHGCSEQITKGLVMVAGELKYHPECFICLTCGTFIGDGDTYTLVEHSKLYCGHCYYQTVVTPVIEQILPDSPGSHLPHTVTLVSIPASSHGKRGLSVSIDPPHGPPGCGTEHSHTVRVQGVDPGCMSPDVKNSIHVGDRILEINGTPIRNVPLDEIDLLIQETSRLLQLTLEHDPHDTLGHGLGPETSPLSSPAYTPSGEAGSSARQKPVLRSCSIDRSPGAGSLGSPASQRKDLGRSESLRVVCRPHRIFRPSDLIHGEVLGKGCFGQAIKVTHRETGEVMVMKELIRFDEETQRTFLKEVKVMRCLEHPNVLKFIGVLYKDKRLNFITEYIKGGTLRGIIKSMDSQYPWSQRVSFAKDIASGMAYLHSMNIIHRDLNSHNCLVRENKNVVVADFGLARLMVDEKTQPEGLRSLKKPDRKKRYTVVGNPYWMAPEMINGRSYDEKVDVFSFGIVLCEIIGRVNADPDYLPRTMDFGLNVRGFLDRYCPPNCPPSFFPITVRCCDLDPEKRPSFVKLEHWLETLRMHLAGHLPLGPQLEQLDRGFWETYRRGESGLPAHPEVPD
Method in brief: as §1

PIK3CG = PIK3CG (Homo sapiens, UniProt P48736)
Method in brief: as §1

PIK3CB / p85 (h) = target: T11, PIK3CB / p85 (h) (Homo sapiens, UniProt P42338)
T11 construct: p110beta/p85
Method in brief: as §1

T1 sequence (Q13188 whole entry): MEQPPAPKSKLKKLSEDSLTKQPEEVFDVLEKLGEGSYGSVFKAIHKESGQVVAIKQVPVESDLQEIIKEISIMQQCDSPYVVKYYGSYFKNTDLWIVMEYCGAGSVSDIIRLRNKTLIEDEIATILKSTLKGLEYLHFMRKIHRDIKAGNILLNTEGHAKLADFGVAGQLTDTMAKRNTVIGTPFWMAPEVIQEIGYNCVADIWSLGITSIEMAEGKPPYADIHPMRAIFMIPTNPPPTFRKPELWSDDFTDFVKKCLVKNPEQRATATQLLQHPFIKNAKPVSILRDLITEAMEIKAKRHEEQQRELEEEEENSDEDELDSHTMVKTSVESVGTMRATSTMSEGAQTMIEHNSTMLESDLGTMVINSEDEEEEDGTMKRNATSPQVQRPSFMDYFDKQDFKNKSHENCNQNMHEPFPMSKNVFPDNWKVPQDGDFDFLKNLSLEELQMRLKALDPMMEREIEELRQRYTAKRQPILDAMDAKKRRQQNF

For `CC[C@@H](N)CNc1ccnc(-c2cc(-c3cnn(C)c3)ccc2O)n1` [CRT0066101], the inhibition at 1 µM (MST2(h)) was 20%, the inhibition at 1 µM (CK1γ3(h)) was -3% and the inhibition at 1 µM (PKD (PKD1)) was 98%. The inhibition at 1 µM (Tie2 (h)) was 4%, the inhibition at 1 µM (AMPKα1(h)) was 17% and the inhibition at 1 µM (CHKA) was 1%. The inhibition at 1 µM (FGFR2(h)) was 5%, the inhibition at 1 µM (JAK2(h)) was 10% and the inhibition at 1 µM (CK2(h)) was 19%. The inhibition at 1 µM (CK1γ1(h)) was -5%, the inhibition at 1 µM (CHK1(h)) was -2% and the inhibition at 1 µM (Snk(h)) was -1%. For the same compound, the inhibition at 1 µM (ROCK-II(h)) was 28%, the inhibition at 1 µM (EGFR(L861Q)(h)) was 10% and the inhibition at 1 µM (LIMK1(h)) was 0%. It also gave an inhibition at 1 µM (PIK3CG) of 29% and an inhibition at 1 µM (PIK3CB / p85 (h)) of 0%.
